One may read the IC50 as the concentration at which inhibition is half-maximal.

The target of this test is T1, human PAD4 (Homo sapiens, UniProt Q9UM07).
T1 construct: human PAD4 (NM_012387), A2-P663, was PCR amplified; His-SUMO (N, cleaved yes); made in house; host or cells: E. coli BL21(DE3)
Description: In vitro PAD4 BAEE biochemical assay. To be noted: BAEE substrate 3 mM, 5 nM PAD4, 2 mM calcium chloride; geometric mean of multiple experiments. The procedure, abridged: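 Recombinant PAD4 (5 nM final) with 2 mM CaCl2 was preincubated with compound for 30 min at 25 °C in MOPS pH 7.6 buffer with DTT, then reacted with 3 mM BAEE for 2 h at 25 °C. Released ammonia was detected fluorimetrically with o-phthalaldehyde/DTT; IC50 from four-parameter fit, geometric mean of experiments.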

T1 sequence (Q9UM07 2-663): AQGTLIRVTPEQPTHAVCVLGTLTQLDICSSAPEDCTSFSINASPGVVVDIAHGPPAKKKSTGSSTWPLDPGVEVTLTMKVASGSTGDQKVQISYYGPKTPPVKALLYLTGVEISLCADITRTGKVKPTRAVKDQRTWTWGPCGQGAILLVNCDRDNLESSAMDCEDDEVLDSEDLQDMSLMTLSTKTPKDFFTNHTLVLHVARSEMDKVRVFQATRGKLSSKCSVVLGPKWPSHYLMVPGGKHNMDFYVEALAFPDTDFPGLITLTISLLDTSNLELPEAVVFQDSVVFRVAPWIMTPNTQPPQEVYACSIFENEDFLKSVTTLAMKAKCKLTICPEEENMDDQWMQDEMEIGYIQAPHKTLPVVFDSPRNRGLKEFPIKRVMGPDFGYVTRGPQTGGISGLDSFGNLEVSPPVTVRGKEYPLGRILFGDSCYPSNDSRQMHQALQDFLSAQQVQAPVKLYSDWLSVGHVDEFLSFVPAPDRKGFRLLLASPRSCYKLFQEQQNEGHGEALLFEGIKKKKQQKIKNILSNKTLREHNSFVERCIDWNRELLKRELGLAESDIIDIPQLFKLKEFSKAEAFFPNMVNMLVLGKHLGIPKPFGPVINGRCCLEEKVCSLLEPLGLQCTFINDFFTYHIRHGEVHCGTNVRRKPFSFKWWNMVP

For `COc1cc(C(=O)N2CCC[C@@H](N)C2)cn2nc(-c3cc4ccc5nc4n3CCCCCCC(C)(C)C(=O)N[C@@H]5C)c(C)c12` [Example 27, (11~{R})-17-[6-[(3~{R})-3-aminopiperidine-1-carbonyl]-4-methoxy-3-methyl-pyrazolo[1,5-a]pyridin-2-yl]-8,8,11-trimethyl-1,10,19-triazatricyclo[10.5.2.0^{15,18}]nonadeca-12(19),13,15(18),16-tetraen-9-one], the IC50 came out at 201 nM.
For `C[C@H]1NC(=O)[C@]2(F)C[C@H]2CCCCCn2c(-c3nc4cc(C(=O)N[C@H]5CNCC[C@@H]5F)c(F)cc4n3C3CC3)cc3ccc1nc32` [Example 387, 1-cyclopropyl-6-fluoro-2-[(2~{R},5~{S},7~{R})-5-fluoro-2-methyl-4-oxo-3,13,19-triazatetracyclo[11.5.2.0^{5,7}.0^{16,20}]icosa-1(19),14,16(20),17-tetraen-14-yl]-~ {N}-[(3~{S},4~{S})-4-fluoro-3-piperidyl]benzimidazole-5-carboxamide] the value was 25 nM; for `COc1cc(C(=O)N2CCC[C@@H](N)C2)cc2nc(-c3cc4ccc5cc4n3CCCCCCNC(=O)c3ncccc3-5)n(C)c12` [Example 52, 17-[5-[(3~{R})-3-aminopiperidine-1-carbonyl]-7-methoxy-1-methyl-benzimidazol-2-yl]-6,9,16-triazatetracyclo[14.5.2.0^{2,7}.0^{19,23}] tricosa-1(22),2,4,6,17,19(23),20-heptaen-8-one], 424 nM.
In the case of `COc1cc(C(=O)N2[C@H]3CC[C@@H]2[C@H](N)C3)cc2nc(-c3cc4ccc5nc4n3CCCCCCC(=O)Nc3cnccc3-5)n(C)c12` [Example 95, 17-[5-[(1~{R},2~{R},4~{S})-2-amino-7-azabicyclo[2.2.1]heptane-7-carbonyl]-7-methoxy-1-methyl-benzimidazol-2-yl]-5,8,16,22-tetrazatetracyclo[14.5.2.0^{2,7}.0^{19,23}] tricosa-1(22),2,4,6,17,19(23),20-heptaen-9-one], the IC50 was 86 nM.
For `COc1cc(C(=O)N2CCC[C@@H](N)[C@H]2C)cc2nc(-c3cc4ccc5nc4n3CCCCCc3nc4ccsc4cc3C(=O)N[C@@H]5C)n(C)c12` [Example 793, (2~{R})-20-[5-[(2~{R},3~{R})-3-amino-2-methyl-piperidine-1-carbonyl]-7-methoxy-1-methyl-benzimidazol-2-yl]-2-methyl-8-thia-3,12,19,25-tetrazapentacyclo[17.5.2.0^ {5,13}.0^{7,11}.0^{22,26}] hexacosa-1(24),5(13),6,9, 11,20,22,25-octaen-4-one] the value was 24 nM.
For `COc1cc(C(=O)N2C[C@H](N)C[C@H](C(F)F)C2)cc2nc(-c3cc4ccc5nc4n3CCCCC[C@@H]3C[C@H]3C(=O)N[C@@H]5C)n(C)c12` [Example 631, (2~{R},5~{R},7~{R})-14-[5-[(3~{R},5~{S})-3-amino-5-(difluoromethyl)piperidine-1-carbonyl]-7-methoxy-1-methyl-benzimidazol-2-yl]-2-methyl-3,13,19-triazatetracyclo[11.5.2.0^ {5,7}.0^{16,20}]icosa-1(19),14,16(20),17-tetraen-4-one] the value was 211 nM.
For `COc1cc(C(=O)N2CCC[C@@H](N)C2)cc2nc(-c3cc4ccc5nc4n3CCCCCCCN(C)C(=O)N[C@@H]5C)c(C)n12` [Example 146, (12~{R})-18-[7-[(3~{R})-3-aminopiperidine-1-carbonyl]-5-methoxy-3-methyl-imidazo[1,2-a]pyridin-2-yl]-9,12-dimethyl-1,9,11,20-tetrazatricyclo[11.5.2.0^{16,19}]icosa-13(20),14,16(19),17-tetraen-10-one] the value was 47 nM.
`C[C@H]1NC(=O)[C@@H]2C[C@H]2CC[C@@H]2[C@H](Cn3c(-c4nc5cc(C(=O)N[C@H]6CNCC[C@@H]6F)c(F)cc5n4C)cc4ccc1nc43)C2(F)F` [Example 386, 2-[(3~{R},5~{R},8~{R},10~{R},13~{R})-4,4-difluoro-13-methyl-11-oxo-1,12,21-triazapentacyclo[12.5.2.0^{3,5}.0^{8,10}.0^ {17,20}]henicosa-14(21),15,17(20),18-tetraen-19-yl]-6-fluoro-~{N}-[(3~{S},4~{S})-4-fluoro-3-piperidyl]-1-methyl-benzimidazole-5-carboxamide]: the concentration for half-maximal inhibition (IC50) was 24 nM.
For `C[C@H]1NC(=O)[C@@H]2C[C@H]2CCCCCn2c(-c3nc4cc(C(=O)N[C@H]5CNC[C@H]6C[C@H]65)c(F)cc4n3C3CC3)cc3ccc1nc32` [Example 575, ~{N}-[(1~{S),5~{R},6~{R})-3-azabicyclo[4.1.0]heptan-5-yl]-1-cyclopropyl-6-fluoro-2-[(2~{R},5~{R},7~{R})-2-methyl-4-oxo-3,13,19-triazatetracyclo[11.5.2.0^ {5,7}.0^{16,20}]icosa-1(19),14,16(20),17-tetraen-14-yl]benzimidazole-5-carboxamide] the value was 26 nM; for `C[C@H]1NC(=O)[C@@H]2[C@@H](CCCC(F)(F)Cn3c(-c4nc5cc(C(=O)N[C@H]6CNCC[C@@H]6F)c(F)cc5n4C)cc4ccc1nc43)C2(F)F` [Example 377, 6-fluoro-~{N}-[(3~{S},4~{S})-4-fluoro-3-piperidyl]-1-methyl-2-[(2~{R},5~{S},7~{R})-6,6,11,11-tetrafluoro-2-methyl-4-oxo-3,13,19-triazatetracyclo[11.5.2.0^{5,7}.0^{16,20}]icosa-1(19),14,16(20),17-tetraen-14-yl]benzimidazole-5-carboxamide], 32 nM; for `COC[C@@H]1[C@H](N)CCCN1C(=O)c1cc(OC)c2c(c1)nc(-c1cc3ccc4nc3n1CCCCC[C@@H]1C[C@H]1C(=O)N[C@@H]4C)n2C` [Example 411, (2~{R},5~{R},7~{R})-14-[5-[(2~{S},3~{R})-3-amino-2-(methoxymethyl)piperidine-1-carbonyl]-7-methoxy-1-methyl-benzimidazol-2-yl]-2-methyl-3,13,19-triazatetracyclo[11.5.2.0^{5,7}.0^{16,20}] icosa-1(19),14,16(20),17-tetraen-4-one], 398 nM.
For `COc1cc(C(=O)N2CCC[C@@H](N)C2)cc2nc(-c3cc4ccc5nc4n3CCCCCc3cccc(C)c3C(=O)N[C@@H]5C)n(C)c12` [Example 361, (2~{R})-17-[5-[(3~{R})-3-aminopiperidine-1-carbonyl]-7-methoxy-1-methyl-benzimidazol-2-yl]-2,6-dimethyl-3,16,22-triazatetracyclo[14.5.2.0^{5,10}.0^{19,23}] tricosa-1(22),5(10),6,8,17,19(23),20-heptaen-4-one] the value was 74 nM; for `COc1cc(C(=O)N2[C@H]3CC[C@@H]2[C@H](N)C3)cc2nc(-c3cc4ccc5nc4n3CCCCCC(=O)N3CCC[C@H]53)n(C)c12` [Example 128, (2~{R})-14-[5-[(1~{R},2~{R},4~{S})-2-amino-7-azabicyclo[2.2.1]heptane-7-carbonyl]-7-methoxy-1-methyl-benzimidazol-2-yl]-6,13,19-triazatetracyclo[11.5.2.0^{2,6}.0^{16,20}] icosa-1(19),14,16(20),17-tetraen-7-one], 13 nM.
For `CO[C@@H]1CCN(C(=O)c2cc(F)c3c(c2)nc(-c2cc4ccc5nc4n2CC(F)(F)CCC[C@@H]2C[C@H]2C(=O)N[C@@H]5C)n3[C@@H]2C[C@H]2F)C[C@@H]1N` [Example 837, (2~{R},5~{R},7~{R})-14-[5-[(3~{S},4~{R})-3-amino-4-methoxy-piperidine-1-carbonyl]-7-fluoro-1-[(1~{R},2~{R})-2-fluorocyclopropyl]benzimidazol-2-yl]-11,11-difluoro-2-methyl-3,13,19-triazatetracyclo [11.5.2.0^{5,7}.0^{16,20}] icosa-1(19),14,16(20), 17-tetraen-4-one] the value was 30 nM; for `COc1cc(C(=O)N2[C@H]3CC[C@@H]2[C@H](N)C3)cc2nc(-c3cc4ccc5cc4n3CCCOC[C@H]3C[C@H]3C(=O)N[C@@H]5C)n(C)c12` [Example 342, (2~{R},5~{R},7~{S})-14-[5-[(1~{R},2~{R},4~{S})-2-amino-7-azabicyclo[2.2.1]heptane-7-carbonyl]-7-methoxy-1-methyl-benzimidazol-2-yl]-2-methyl-9-oxa-3,13-diazatetracyclo[11.5.2.0^{5,7}.0^{16,20}] icosa-1(19),14,16(20),17-tetraen-4-one], 43 nM.
Consider `C[C@@H]1[C@H](N)CCCN1C(=O)c1cc(Cl)c2c(c1)nc(-c1cc3ccc4nc3n1CC(F)(F)CCC[C@@H]1C[C@H]1C(=O)N[C@@H]4C)n2C1CC1` [Example 805, (2~{R},5~{R},7~{R})-14-[5-[(2~{R},3~{R})-3-amino-2-methyl-piperidine-1-carbonyl]-7-chloro-1-cyclopropyl-benzimidazol-2-yl]-11,11-difluoro-2-methyl-3,13,19-triazatetracyclo[11.5.2.0^ {5,7}.0^{16,20}]icosa-1(18),14,16,19-tetraen-4-one], for which the half-maximal inhibitory concentration (IC50) was 6 nM.
For `COc1cc(C(=O)N2C[C@H]3OC[C@@H]2[C@@H]3N)cc2nc(-c3cc4ccc5nc4n3CC(F)(F)CCC[C@@H]3C[C@H]3C(=O)N[C@@H]5C)n(C)c12` [Example 707, (2~{R},5~{R},7~{R})-14-[5-[(1~{R},4~{S},7~ {S})-7-amino-2-oxa-5-azabicyclo[2.2.1]heptane-5-carbonyl]-7-methoxy-1-methyl-benzimidazol-2-yl]-11,11-difluoro-2-methyl-3,13,19-triazatetracyclo[11.5.2.0^ {5,7}.0^{16,20}]icosa-1(19),14,16(20),17-tetraen-4-one] the value was 21 nM.
For `CO[C@@H]1CCN(C(=O)c2cc(F)c3c(c2)nc(-c2cc4ccc5nc4n2CCCCCc2nccnc2C(=O)N[C@@H]5C)n3C)C[C@@H]1N` [Example 513, (2~{R})-17-[5-[(3~ {S},4~{R})-3-amino-4-methoxy-piperidine-1-carbonyl]-7-fluoro-1-methyl-benzimidazol-2-yl]-2-methyl-3,6,9,16,22-pentazatetracyclo[14.5.2.0^ {5,10}.0^{19,23}] tricosa-1(22),5(10),6,8,17,19 (23),20-heptaen-4-one] the value was 161 nM.
